Data published in patent US20100075370A1, “METHOD FOR DETERMINATION OF CELL VIABILITY BY USING FLOW CYTOMETRY WITH FIXED VOLUME ACQUISITION” (TUMORTEC GMBH, priority 2006, published 2010).

Test system: pBMC from patients with CLL
Assay: Cytotoxicity of several antineoplastic agents on pBMC (LC90), fixed volume flow cytometry
Type: cell-based, human
Conditions: in µg/mL
Text: The necessary peripheral blood (PB) samples from adult patients diagnosed with chronic lymphatic leukaemia (CLL) were collected into heparin during routine diagnosis prior to administration of chemotherapy.

[1] = pBMC of CLL patient #1, ex vivo
[2] = pBMC of CLL patient #2, ex vivo
[3] = pBMC of CLL patient #3, ex vivo
[4] = pBMC of CLL patient #4, ex vivo
[5] = pBMC of CLL patient #5, ex vivo
[6] = pBMC of CLL patient #6, ex vivo
[7] = pBMC of CLL patient #7, ex vivo
[8] = pBMC of CLL patient #8, ex vivo
[9] = pBMC of CLL patient #9, ex vivo
[10] = pBMC of CLL patient #10, ex vivo
[11] = pBMC of CLL patient #11, ex vivo
[12] = pBMC of CLL patient #12, ex vivo
[13] = pBMC of CLL patient #13, ex vivo
[14] = pBMC of CLL patient #14, ex vivo
[15] = pBMC of CLL patient #15, ex vivo
[16] = pBMC of CLL patient #16, ex vivo
[17] = pBMC of CLL patient #17, ex vivo
[18] = pBMC of CLL patient #18, ex vivo
[19] = pBMC of CLL patient #19, ex vivo
[20] = pBMC of CLL patient #20, ex vivo
[21] = pBMC of CLL patient #21, ex vivo
[22] = pBMC of CLL patient #22, ex vivo
[23] = pBMC of CLL patient #23, ex vivo
[24] = pBMC of CLL patient #24, ex vivo
[25] = pBMC of CLL patient #25, ex vivo

Question: Which results are given for `Nc1nc(Cl)nc2c1ncn2[C@H]1C[C@H](O)[C@@H](CO)O1` [Cladribine ®, Cladribine]?
Answer: LC90 [1]: 0.185; LC90 [2]: 0.184; LC90 [3]: 0.159; LC90 [4]: 0.107; LC90 [5]: 0.083; LC90 [6]: 0.080; LC90 [7]: 0.063; LC90 [8]: 0.059; LC90 [9]: 0.052; LC90 [10]: 0.048; LC90 [11]: 0.047; LC90 [12]: 0.040; LC90 [13]: 0.029; LC90 [14]: 0.027; LC90 [15]: 0.024; LC90 [16]: 0.017; LC90 [17]: 0.015; LC90 [18]: 0.013; LC90 [19]: 0.007; LC90 [20]: 0.006; LC90 [21]: 0.005; LC90 [22]: 0.004; LC90 [23]: 0.000; LC90 [24]: 8.100; LC90 [25]: 1.967

Question: With `O=C1c2c(O)ccc(O)c2C(=O)c2c(NCCNCCO)ccc(NCCNCCO)c21` [Novantrone ®, Mitoxantrone] as the molecule, how does the LC90 [1] read?
Answer: 0.06

Question: What about the LC90 [2] of the same molecule?
Answer: 0.03

Question: And the LC90 [3]?
Answer: 0.19

Question: What about the LC90 [4] of the same molecule?
Answer: 0.15

Question: What about the LC90 [5] of the same molecule?
Answer: 0.11

Question: And the LC90 [6]?
Answer: 13.37

Question: And the LC90 [7]?
Answer: 0.14

Question: What about the LC90 [8] of the same molecule?
Answer: 0.02

Question: What about the LC90 [9] of the same molecule?
Answer: 0.10

Question: And the LC90 [10]?
Answer: 0.05

Question: And the LC90 [11]?
Answer: 12.80

Question: And the LC90 [12]?
Answer: 0.06

Question: What about the LC90 [13] of the same molecule?
Answer: 0.40

Question: And the LC90 [14]?
Answer: 0.09

Question: What about the LC90 [15] of the same molecule?
Answer: 0.05

Question: And the LC90 [16]?
Answer: 0.01

Question: And the LC90 [17]?
Answer: 0.03

Question: And the LC90 [18]?
Answer: 0.08

Question: What about the LC90 [19] of the same molecule?
Answer: 0.07

Question: And the LC90 [20]?
Answer: 0.02

Question: And the LC90 [21]?
Answer: 0.05

Question: And the LC90 [22]?
Answer: 0.05

Question: And the LC90 [23]?
Answer: 0.01

Question: And the LC90 [24]?
Answer: 12.77

Question: And the LC90 [25]?
Answer: 0.17

Question: With `C[C@]12C=CC(=O)C=C1CC[C@@H]1[C@@H]2[C@@H](O)C[C@@]2(C)[C@H]1CC[C@]2(O)C(=O)CO` [Prednisolone ®, Prednisolone] as the molecule, how does the LC90 [1] read?
Answer: 40.69

Question: And the LC90 [2]?
Answer: 21.96

Question: What about the LC90 [3] of the same molecule?
Answer: 12.17

Question: What about the LC90 [4] of the same molecule?
Answer: 2.25

Question: And the LC90 [5]?
Answer: 12.67

Question: And the LC90 [6]?
Answer: 0.88

Question: And the LC90 [7]?
Answer: 35.35

Question: What about the LC90 [8] of the same molecule?
Answer: 29.81

Question: And the LC90 [9]?
Answer: 33.00

Question: And the LC90 [10]?
Answer: 11.71

Question: And the LC90 [11]?
Answer: 0.46

Question: What about the LC90 [12] of the same molecule?
Answer: 0.86

Question: What about the LC90 [13] of the same molecule?
Answer: 2.56

Question: And the LC90 [14]?
Answer: 0.56

Question: What about the LC90 [15] of the same molecule?
Answer: 0.82

Question: And the LC90 [16]?
Answer: 0.19

Question: What about the LC90 [17] of the same molecule?
Answer: 35.69

Question: And the LC90 [18]?
Answer: 0.51

Question: And the LC90 [19]?
Answer: 0.98

Question: And the LC90 [20]?
Answer: 99.92

Question: And the LC90 [21]?
Answer: 0.54

Question: And the LC90 [22]?
Answer: 12.76

Question: What about the LC90 [23] of the same molecule?
Answer: 0.82

Question: What about the LC90 [24] of the same molecule?
Answer: 48.18

Question: What about the LC90 [25] of the same molecule?
Answer: 0.48

Question: With `CC[C@]1(O)C[C@H]2CN(CCc3c([nH]c4ccccc34)[C@@](C(=O)OC)(c3cc4c(cc3OC)N(C=O)[C@H]3[C@@](O)(C(=O)OC)[C@H](OC(C)=O)[C@]5(CC)C=CCN6CC[C@]43[C@@H]65)C2)C1` [Oncovin ®, Vincristin] as the molecule, how does the LC90 [1] read?
Answer: 2.51

Question: And the LC90 [2]?
Answer: 0.47

Question: And the LC90 [3]?
Answer: 0.14

Question: And the LC90 [4]?
Answer: 10.96

Question: What about the LC90 [5] of the same molecule?
Answer: 0.33

Question: What about the LC90 [6] of the same molecule?
Answer: 0.07

Question: And the LC90 [7]?
Answer: 0.88

Question: And the LC90 [8]?
Answer: 10.23

Question: What about the LC90 [9] of the same molecule?
Answer: 0.47

Question: What about the LC90 [10] of the same molecule?
Answer: 0.41

Question: And the LC90 [11]?
Answer: 0.21

Question: And the LC90 [12]?
Answer: 0.97

Question: What about the LC90 [13] of the same molecule?
Answer: 0.24

Question: And the LC90 [14]?
Answer: 0.04

Question: What about the LC90 [15] of the same molecule?
Answer: 0.44

Question: What about the LC90 [16] of the same molecule?
Answer: 0.13

Question: What about the LC90 [17] of the same molecule?
Answer: 0.41

Question: What about the LC90 [18] of the same molecule?
Answer: 0.70

Question: And the LC90 [19]?
Answer: 0.10

Question: What about the LC90 [20] of the same molecule?
Answer: 0.42

Question: What about the LC90 [21] of the same molecule?
Answer: 0.10

Question: And the LC90 [22]?
Answer: 0.30

Question: What about the LC90 [23] of the same molecule?
Answer: 0.08

Question: What about the LC90 [24] of the same molecule?
Answer: 61.57

Question: What about the LC90 [25] of the same molecule?
Answer: 0.23
